# In patent US20250325520A1, “Methods for Targeting Cancer Cells Using Amino Acids” (University of Denver, priority 2024, published 2025):
# Key:
# [1] = test system: PANC-1 subcutaneous pancreatic tumor; assay: Subcutaneous PANC-1 xenograft in nude mice; format: in vivo; conditions: AA oral gavage daily, GEM intraperitoneal twice a week, n=5, FIG. 32
# Protocol: In particular, the xenograft model was established with six to eight-week-old male nude mice (J:NU-Foxn1nu) purchased from The Jackson Laboratory (Bar Harbor, ME). […] The pancreatic cancer tumor was injected subcutaneously into the left flank of each mouse with 4×10^6 PANC-1 cells suspended in 100 μl of serum-free media with 50% […] ® matrix to establish a subcutaneous pancreatic tumor.
# Mice were observed three times daily for the first seven days and tumor xenograft was confirmed by the presence of the tumor. […] Tumor volume and mice weight were measured every fifth day. Tumor volume was established by measuring length and width; the volume formula used was the modified ellipsoid volume formula (½ length×width 2).
# For AA and control groups, treatment was given by oral gavage. AA treatment was made from a combination of histidine (44 mg/ml) and isoleucine (22 mg/ml) dissolved in PBS. For the two groups with AA, oral gavage treatment was administered daily with 200 μl AA treatment using a 20 ga polypropylene feeding tube attached to a syringe. For the control group, oral gavage treatment was administered using the same method except with 200 μl PBS. For the GEM and AA+GEM groups, GEM was given by intraperitoneal injection. GEM groups were injected twice a week with 200 μl of GEM (15 mg/ml) dissolved in PBS. All treatments were administered for sixty days. […]
# [2] = test system: PANC-1 and MIA PaCa-2 (malignant pancreas epithelial) cells; assay: Cell viability / cytotoxicity (CCK-8) on PDAC tumor cells; format: cell-based, human; conditions: for cytotoxic efficacy on tumor cells / viability dose response of tumor cells: individual amino acid, 48 hours, FIGS. 7, 8
# Protocol: (§1) Malignant pancreatic cell lines (PANC-1 and MIA PaCa-2) and nonmalignant human pancreas cell line (HPNE) were obtained from the American Type Culture Collection (Manassas, Virginia). The cells were cultured in DMEM medium (HYCLONE™ sera, available from GE Healthcare Life Sciences) with HPNE cells having 0.1 ng/ml EGF (Novus Biologicals, USA) included. All cultures were supplemented with 10% fetal bovine serum (FBS, Life Technology, Thermo Fisher Scientific Inc.), penicillin (1 U), and streptomycin (1 μg/ml). All cells were maintained in a humidified incubator with 5% CO2 at 37° C. All cell lines were cultured in triplicate under the same conditions, then harvested to collect independent exosome samples. Cells were seeded in 96-well plates at a density of 10^4 cells/well. After 24 hours, culture medium with increasing concentrations of treatment was added to the treatment group for 48 hours. Cell viability was accessed by Cell Counting Kit-8 (CCK-8; Dojindo Laboratories) following the manufacturer's instructions. Briefly, a mixture of 10 μl of CCK-8 and 190 μl media was added into each well and the cells were incubated for another 1 hour. The absorbance of each well was measured at 450 nm using a microplate reader. Each experiment was repeated six times.
# [3] = pH change of the media caused by amino acid addition; format: physicochemical; conditions: culture media, FIG. 6
# [4] = test system: hTert-HPNE (nonmalignant pancreas epithelial) cells; assay: Cell viability / cytotoxicity (CCK-8) on nontumor cells; format: cell-based, human; conditions: individual amino acid, 48 hours, FIGS. 7, 8
# Protocol: as §1
pH change caused by amino acid addition [3],SMILES,antitumor efficacy (tumor volume) [1],"time-dependent cytotoxicity to tumor cells ([2]; AA compared with GEM, FIG. 13)",cell viability of nontumor cells [4],cytotoxic efficacy on tumor cells [2],viability dose response of tumor cells [2]
,"Nc1ccn([C@@H]2O[C@H](CO)[C@@H](O)C2(F)F)c(=O)n1 [GEM, gemcitabine, reference compound]",showed antitumor efficacy,faster efficacy and is more tumoricidal effective,,,
significant pH change,"N[C@@H](CS)C(=O)O [cysteine, reference compound]",,,,,
trivial impact,N[C@@H](Cc1c[nH]cn1)C(=O)O [histidine],,,no significant difference in cell viability,selective cytotoxic efficacy,monotonic dose response
trivial impact,CC[C@H](C)[C@H](N)C(=O)O [isoleucine],,,no significant difference in cell viability,selective cytotoxic efficacy,monotonic dose response

SMILES,pH change caused by amino acid addition [3],antitumor efficacy (tumor volume) [1],"time-dependent cytotoxicity to tumor cells ([2]; AA compared with GEM, FIG. 13)",cell viability of nontumor cells [4],cytotoxic efficacy on tumor cells [2],viability dose response of tumor cells [2]
"N=C(N)NCCC[C@H](N)C(=O)O [arginine, reference compound]",significant pH change,,,,,
